{
  "source": "patent EP4613259A1",
  "about": "“PHARMACEUTICAL, DERMATOLOGICAL OR COSMETIC COMPOUNDS AND COMPOSITIONS FOR REDUCING MELANIN SYNTHESIS, STIMULATING TYPE I COLLAGEN PRODUCTION, SKIN DEPIGMENTATION AND/OR PROMOTING A SKIN ANTI-AGING EFFECT IN AN INDIVIDUAL OR ANIMAL, USES AND METHODS” (Chemyunion Ltda, priority 2022, dated 2024)",
  "key": {"[1]": {"tested_on": "melanin synthesis in human skin fragments", "test": "Inhibition of melanin synthesis in ex vivo human skin fragments (Fontana Masson staining, semi-quantification)", "format": "cell-based", "conditions": "skin explants (n=5), 72h", "method": "Example 1: Evaluation of inhibition of melanin synthesis in human skin fragments.\nSkin explants (n=5), obtained from a surgical procedure performed by an ophthalmological plastic surgery clinic, were treated for 72h with a formulation containing the peptide SEQ ID No. 1 (Pal-Gln-His-Trp-Val-OH), (at 50 ppm or 100 ppm) and with the same formulation without the addition of the peptide (placebo).\nAfter incubation with the test products as described above, the skin fragments were fixed in 4% paraformaldehyde (pH 7.4) for 24 hours. After fixation, the material was transferred to 30% sucrose solution for cryopreservation and then embedded in tissue freezing medium, followed by serial sections of approximately 10 µm thickness made by cryostat and collected directly on silanized glass slides. Then, the skin sections were stained by the Fontana Masson technique.\nSubsequently, the slides were analyzed and recorded using an optical microscope coupled to a camera."}, "[2]": {"tested_on": "type I collagen", "test": "Stimulation of type I collagen synthesis in ex vivo human skin fragments (immunofluorescence, semi-quantification)", "format": "cell-based", "conditions": "skin explants (n=5)", "method": "Example 2: Evaluation of collagen synthesis stimulation in human skin fragments.\nSkin explants (n=5) obtained from a surgical procedure performed by the ophthalmologic plastic surgery clinic were treated for 72 h with a formulation containing the peptide SEQ ID No. 1 ( Pal - Gln - His- Trp - Val-OH ) (at 50 ppm or 100 ppm ) and with the same formulation without the addition of the peptide (placebo). After incubation with the test products as described above, the skin fragments were fixed in 4% paraformaldehyde (pH 7.4) for 24 h. After fixation, the material was transferred to a 30% sucrose solution for cryopreservation and then embedded in tissue freezing medium, followed by serial sections of approximately 10 µm thickness made by cryostat and collected directly on silanized glass slides. The skin sections were then subjected to the specific labeling process for type I collagen for subsequent immunofluorescence analysis; the records were obtained using a fluorescence optical microscope coupled to a photographic camera."}},
  "note": "Where a SMILES comes first, the peptide text is derived from it. The star is where a group is joined. Palmitoyl = CCCCCCCCCCCCCCCC(=O)*",
  "data": [
    {"smiles": "CCCCCCCCCCCCCCCC(=O)N[C@@H](CCC(N)=O)C(=O)N[C@@H](Cc1cnc[nH]1)C(=O)N[C@@H](Cc1c[nH]c2ccccc12)C(=O)N[C@H](C(=O)O)C(C)C", "note": "[SEQ ID No. 1, Pal-Gln-His-Trp-Val-OH] (Palmitoyl-QHWV-OH)", "values": [
      {"measurement": "reduces melanin production compared to the placebo group", "setting": "[1]; 50 ppm peptide in formulation", "result": 66, "unit": "%"},
      {"measurement": "inhibits pigment synthesis compared to the levels observed in the placebo group", "setting": "[1]; 100 ppm peptide in formulation", "result": 61, "unit": "%"},
      {"measurement": "stimulated collagen I production compared to the placebo group", "setting": "[2]; 50 ppm peptide in formulation, 72h", "result": 63, "unit": "%"},
      {"measurement": "increase in protein synthesis compared to the levels observed in the placebo group", "setting": "[2]; 100 ppm peptide in formulation, 72 h, protein = type I collagen", "result": 71, "unit": "%"}
    ]}
  ]
}
